# According to ChEMBL document CHEMBL1137932, “Synthesis of S-alkyl L-homocysteine analogues of glutathione and their kinetic studies with gamma-glutamyl transpeptidase” (Bioorg Med Chem Lett, 2004):
# What was measured:
# Type in all cases: tissue-based
# [1] = molecular target: T1, Glutathione hydrolase 1 proenzyme (Rattus norvegicus, UniProt P07314); assay: Compound tested for the inhibition of Gamma-glutamyltranspeptidase in rat kidney at pH 8.0 at 37 degree C (Competitive inhibition)
# [2] = molecular target: T1, Glutathione hydrolase 1 proenzyme; assay: Compound tested for the inhibition of Gamma-glutamyltranspeptidase in rat kidney at pH 8.0 at 37 degree C; N/0=No inhibition observed up to 20 mM
# [3] = molecular target: T1, Glutathione hydrolase 1 proenzyme; assay: Compound tested for the inhibition of Gamma-glutamyltranspeptidase in rat kidney at pH 8.0 at 37 degree C
# T1 sequence (P07314 1-379 limits assumed): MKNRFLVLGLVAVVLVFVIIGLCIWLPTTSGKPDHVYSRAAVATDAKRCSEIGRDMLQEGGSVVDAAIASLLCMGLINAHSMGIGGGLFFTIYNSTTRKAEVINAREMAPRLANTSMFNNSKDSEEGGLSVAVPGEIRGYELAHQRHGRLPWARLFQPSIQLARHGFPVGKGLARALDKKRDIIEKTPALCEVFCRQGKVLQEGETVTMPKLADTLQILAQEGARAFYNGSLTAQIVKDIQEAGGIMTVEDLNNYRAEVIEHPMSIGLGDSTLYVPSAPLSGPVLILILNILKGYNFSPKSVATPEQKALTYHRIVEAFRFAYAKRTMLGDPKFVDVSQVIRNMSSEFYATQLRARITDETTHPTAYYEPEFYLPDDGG
# T1 sequence (P07314 380-568 limits assumed): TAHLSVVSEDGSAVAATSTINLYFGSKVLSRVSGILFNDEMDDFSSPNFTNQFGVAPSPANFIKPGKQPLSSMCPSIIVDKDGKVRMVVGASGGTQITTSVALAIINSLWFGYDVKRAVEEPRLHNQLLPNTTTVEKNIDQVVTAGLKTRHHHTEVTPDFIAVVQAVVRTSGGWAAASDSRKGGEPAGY
Ki [1] [µM],SMILES,other results
53,NC(CC[S+]([O-])CCC(=O)NCC(=O)O)C(=O)O (configuration not stated),–
–,CS(=O)(=O)CC[C@H](N)C(=O)O [METHIONINE SULFONE],Ki [2]: No inhibition to 20mM
26900,CSCC[C@H](N)C(=O)O [METHIONINE],–
520,N[C@@H](CCSCCC(=O)NCC(=O)O)C(=O)O,–
5900,C[S+]([O-])CC[C@H](N)C(=O)O (some centres not stated) [METHIONINE SULFOXIDE],–
230,N[C@@H](CC[S+]([O-])Cc1ccc(C(=O)NCC(=O)O)cc1)C(=O)O (some centres not stated),–
–,N[C@@H](CCS(=O)(=O)CCC(=O)NCC(=O)O)C(=O)O,Ki [3]: 3500 µM
